Key:
Assay type in all cases: physicochemical
[1] = Temperature and humidity stability, open storage (HPLC purity, XRPD crystal form)
Method: The sulfate polymorph A obtained in Example 1 was placed openly under conditions of 25°C/92.5% RH, 25°C/60% RH and 40°C/75% RH to test the temperature and humidity stability. After the samples were stored for 1 week and 4 weeks, respectively, the purity of the samples was tested by HPLC, and the crystalline morphology of the samples was detected by XRPD.
The XRPD results of sulfate polymorph A after 1 and 4 weeks of storage at 25°C/92.5% RH, 25°C/60% RH and 40°C/75% RH are shown in Figures 14 and 15. Table 12 Stability assessment of sulfate polymorph A at different temperatures and humidities

[2] = Solubility in buffers and water (HPLC of supernatant)
Method: Polymorph I of compound 1 obtained in Comparative Example 1, and sulfate polymorph A obtained in Example 1 were weighed in a sample vial, to which 1 mL of hydrochloric acid buffer solution at pH=1.2, acetate buffer solution at pH=4.5, phosphate buffer solution at pH=6.8, and water were added, respectively. The suspension was magnetically stirred at 25°C (1000 r/min).

[3] = Moisture adsorption-desorption by DVS; conditions: 25 °C
Method: The moisture adsorption-desorption properties of sulfate polymorph A obtained according to Example 1 were examined by DVS. 16 mg of sulfate polymorph A was placed in a metal container, which was placed in an Intrinsic DVS apparatus. A cyclic humidity gradient of 40-95-0-40% RH was set at 25 °C, and the samples were subjected to two successive adsorption-desorption cycles. At each stage, the following equilibrium criteria were used: mass change dm/dt < 0.002% over 5 min, with minimum and maximum equilibrium times of 60 min and 360 min, respectively, at each stage. Table 13 Dynamic water adsorption experiments for sulfate polymorph A

[4] = Storage stability of crystals at different temperatures, airtight (HPLC purity, XRPD crystal form)
Method: 10 mg polymorph I of compound 1 obtained in Comparative Example 1 and polymorph A of sulfate salt obtained in Example 1 were placed in an airtight environment and stored at 2~8 °C, 25 °C and 60 °C for 1 week and 2 weeks, respectively, and then samples were taken to examine the chemical purity of the samples by HPLC and the crystal morphology of the samples by XRPD. Table 11 Evaluation of storage properties of crystals at different temperatures

[5] = 25°C/60%RH for four weeks, open
[6] = 25°C/92.5% RH for four weeks, open
[7] = 25°C/92.5% RH for one week, open
[8] = 40°C/75% RH for four weeks, open
[9] = acetate buffer solution pH 4.5, 25°C, 24 h
[10] = hydrochloric acid buffer solution pH 1.2, 25°C, 24 h
[11] = phosphate buffer solution pH 6.8, 25°C, 24 h

With `Cc1c2c(c(=O)n3c1C(=O)NC31CCCCC1)Nc1cc(NC(=O)C3CC3)ncc1C2` [Sulfate polymorph A] the “Aromatic content (%)” value ([1]; 25°C/60% RH for one week, open) was 1.0%, the “Purity (%)” value ([1]; 25°C/60% RH for one week, open) was 98.1% and the “Aromatic content (%)” value [1, 5] was 1.0%. The “Purity (%)” value [1, 5] was 98.1%, the “Aromatic content (%)” value [1, 6] was 1.2% and the “Purity (%)” value [1, 6] was 97.8%. For the same molecule, the “Aromatic content (%)” value [1, 7] was 1.0%, the “Purity (%)” value [1, 7] was 98.1% and the “Aromatic content (%)” value [1, 8] was 1.1%. For the same molecule, the “Purity (%)” value [1, 8] was 97.9%, the “Aromatic content (%)” value ([1]; 40°C/75% RH for one week, open) was 1.0% and the “Purity (%)” value ([1]; 40°C/75% RH for one week, open) was 98.1%. The “Aromatic content (%)” value ([1]; Initial) was 1.0%, the “Purity (%)” value ([1]; Initial) was 98.1% and the “structural stability (purity and XRPD) on storage” value ([1]; different humidity and temperature conditions, 1 and 4 weeks) was “high structural stability”. For the same molecule, the solubility at 24 h ([2]; acetate buffer solution pH 4.5, 25°C) was 58.6 µg/mL, the “pH of the solution after solvation saturation has been reached” value (from here on “pH of the solution”) [2, 9] was 2.0 and the solubility at 24 h ([2]; hydrochloric acid buffer solution pH 1.2, 25°C) was 22.5 µg/mL. For the same molecule, the “pH of the solution” value [2, 10] was 1.2, the solubility at 24 h ([2]; phosphate buffer solution pH 6.8, 25°C) was 21.6 µg/mL and the “pH of the solution” value [2, 11] was 2.0. For the same molecule, the solubility at 24 h ([2]; water, 25°C) was 64.7 µg/mL, the “pH of the solution” value ([2]; water, 25°C, 24 h) was 1.5 and the hygroscopicity ([3]; 0%RH-95%RH) was “slightly hygroscopic”. For the same molecule, the moisture absorbed ([3]; range 0%RH-95%RH) was 1.2%, the “1st Desorption Mass change (%)” value ([3]; Relative humidity 0 %) was -0.574% and the “2nd Adsorption Mass change (%)” value ([3]; Relative humidity 0 %) was -0.574%. For the same molecule, the “1st Desorption Mass change (%)” value ([3]; Relative humidity 10 %) was -0.344%, the “2nd Adsorption Mass change (%)” value ([3]; Relative humidity 10 %) was -0.368% and the “1st Desorption Mass change (%)” value ([3]; Relative humidity 20 %) was -0.210%. For the same molecule, the “2nd Adsorption Mass change (%)” value ([3]; Relative humidity 20 %) was -0.246%, the “1st Desorption Mass change (%)” value ([3]; Relative humidity 30 %) was -0.084% and the “2nd Adsorption Mass change (%)” value ([3]; Relative humidity 30 %) was -0.133%. For the same molecule, the “1st Adsorption Mass change (%)” value ([3]; Relative humidity 40 %) was 0.000%, the “1st Desorption Mass change (%)” value ([3]; Relative humidity 40 %) was 0.081% and the “2nd Adsorption Mass change (%)” value ([3]; Relative humidity 40 %) was -0.017%. The “1st Adsorption Mass change (%)” value ([3]; Relative humidity 50 %) was 0.085%, the “1st Desorption Mass change (%)” value ([3]; Relative humidity 50 %) was 0.178% and the “1st Adsorption Mass change (%)” value ([3]; Relative humidity 60 %) was 0.174%. For the same molecule, the “1st Desorption Mass change (%)” value ([3]; Relative humidity 60 %) was 0.253%, the “1st Adsorption Mass change (%)” value ([3]; Relative humidity 70 %) was 0.260% and the “1st Desorption Mass change (%)” value ([3]; Relative humidity 70 %) was 0.327%. The “1st Adsorption Mass change (%)” value ([3]; Relative humidity 80 %) was 0.357%, the “1st Desorption Mass change (%)” value ([3]; Relative humidity 80 %) was 0.418% and the “1st Adsorption Mass change (%)” value ([3]; Relative humidity 90 %) was 0.497%. The “1st Desorption Mass change (%)” value ([3]; Relative humidity 90 %) was 0.589%, the “1st Adsorption Mass change (%)” value ([3]; Relative humidity 95 %) was 0.604% and the “1st Desorption Mass change (%)” value ([3]; Relative humidity 95 %) was 0.604%. For the same molecule, the “crystal structure (XRPD) after storage” value ([4]; 1 week and 2 weeks at 2~8 °C, 25 °C and 60 °C) was “did not undergo significant changes”, the “Purity (%)” value ([4]; Initial) was 97.5% and the “the amount of aromatic hydrocarbons (%)” value ([4]; Initial) was 1.5%. The “Purity (%)” value ([4]; One week, 2~8 °C, airtight) was 97.5%, the “the amount of aromatic hydrocarbons (%)” value ([4]; One week, 2~8 °C, airtight) was 1.5% and the “Purity (%)” value ([4]; One week, 25 °C, airtight) was 97.4%. For the same molecule, the “the amount of aromatic hydrocarbons (%)” value ([4]; One week, 25 °C, airtight) was 1.5%, the “Purity (%)” value ([4]; One week, 60 °C, airtight) was 97.3% and the “the amount of aromatic hydrocarbons (%)” value ([4]; One week, 60 °C, airtight) was 1.7%. For the same molecule, the “Purity (%)” value ([4]; Two weeks, 2~8 °C, airtight) was 97.5%, the “the amount of aromatic hydrocarbons (%)” value ([4]; Two weeks, 2~8 °C, airtight) was 1.5% and the “Purity (%)” value ([4]; Two weeks, 25 °C, airtight) was 97.5%. The “the amount of aromatic hydrocarbons (%)” value ([4]; Two weeks, 25 °C, airtight) was 1.5%, the “Purity (%)” value ([4]; Two weeks, 60 °C, airtight) was 97.1% and the “the amount of aromatic hydrocarbons (%)” value ([4]; Two weeks, 60 °C, airtight) was 1.8%.
For “N-(12'-methyl-1',5'-dioxo-1',5',6 ',11'-tetrahydro-2'H-spiro[cyclohexane-1,3'-imidazo[1,5':1,6]pyrido[3,4-b][ 1,6]naphthyridin]-8'-yl)cyclopropane carboxamide [polymorph I of Compound 1]”, the “Solubility (μg/mL)” value [2, 9] was “Not detected”, the “pH of the solution” value [2, 9] was 3.5 and the “Solubility” value [2, 10] was 18.7 µg/mL. For the same molecule, the “pH of the solution” value [2, 10] was 1.0, the “Solubility (μg/mL)” value [2, 11] was “Not detected” and the “pH of the solution” value [2, 11] was 6.4. For the same molecule, the “Solubility (μg/mL)” value ([2]; water, 25°C, 24 h) was “Not detected”, the “pH of the solution” value ([2]; water, 25°C, 24 h) was 6.4 and the “crystal structure (XRPD) after storage” value ([4]; 2 weeks at high temperature (60 °C)) was “the crystal structure changed”. For the same molecule, the “crystal structure (XRPD) after storage” value ([4]; 2 weeks at low temperature (2-8 °C) or room temperature (25 °C)) was “did not change significantly”, the “Purity (%)” value ([4]; Initial) was 97.4% and the “the amount of aromatic hydrocarbons (%)” value ([4]; Initial) was 1.6%. The “Purity (%)” value ([4]; One week, 2~8 °C, airtight) was 97.6%, the “the amount of aromatic hydrocarbons (%)” value ([4]; One week, 2~8 °C, airtight) was 1.4% and the “Purity (%)” value ([4]; One week, 25 °C, airtight) was 97.6%. The “the amount of aromatic hydrocarbons (%)” value ([4]; One week, 25 °C, airtight) was 1.4%, the “Purity (%)” value ([4]; One week, 60 °C, airtight) was 96.6% and the “the amount of aromatic hydrocarbons (%)” value ([4]; One week, 60 °C, airtight) was 2.4%. For the same molecule, the “Purity (%)” value ([4]; Two weeks, 2~8 °C, airtight) was 97.5%, the “the amount of aromatic hydrocarbons (%)” value ([4]; Two weeks, 2~8 °C, airtight) was 1.5% and the “Purity (%)” value ([4]; Two weeks, 25 °C, airtight) was 97.4%. The “the amount of aromatic hydrocarbons (%)” value ([4]; Two weeks, 25 °C, airtight) was 1.6%, the “Purity (%)” value ([4]; Two weeks, 60 °C, airtight) was 96.3% and the “the amount of aromatic hydrocarbons (%)” value ([4]; Two weeks, 60 °C, airtight) was 2.7%.

From patent publication EP4663639A1, “SALT AND CRYSTAL OF MNK INHIBITOR COMPOUND AND PREPARATION METHOD THEREFOR” (Novostar Pharmaceuticals, Ltd., priority 2023, dated 2024)
